Test results from paper PMC6403222, “Identification of a novel class of RIP1/RIP3 dual inhibitors that impede cell death and inflammation in mouse abdominal aortic aneurysm models” (Cell Death & Disease, 2019).

Key:
[1] = molecular target: T1, RIP3 (Homo sapiens, UniProt Q9Y572); assay: KINOMEscan competition binding Kd; also ADP-Glo kinase inhibition
T1 construct: gene RIPK3; kinase domain

[2] = molecular target: T2, EPHB6 (Homo sapiens, UniProt O15197); assay: KINOMEscan competition binding, single concentration […]; conditions: read-out: % of control at 100 nM
[3] = molecular target: T3, KIT (Homo sapiens, UniProt P10721); assay: as above; conditions: read-out: % of control at 100 nM
[4] = molecular target: T4, CSF1R (Homo sapiens, UniProt P07333); assay: as above; conditions: read-out: % of control at 100 nM
[5] = molecular target: AURKC (Homo sapiens, UniProt Q9UQB9); assay: biochemical; parameters: KINOMEscan competition binding assay (DiscoveRx), per cent of control at 100 nM; conditions: competition binding, per cent of DMSO control; read-out: Percent Control
Method: (§1) The selectivity of GSK’074 was evaluated using KINOMEscan™ profiling service (DiscoveRx Corporation, Fremont, CA). In brief, an in vitro competition binding assay was used to evaluate GSK’074 specificity at a concentration of 100 nM against 468 human kinases including 403 non-mutant kinases and 65 mutant kinases, as described previously[33],[50]. KINOMEscan™ was also used to determine binding constants (Kd) for GSK’074 against RIP1 and RIP3. In brief, an 11-point threefold serial dilution of GSK’074 was prepared in 100% DMSO at 100× final test concentration and subsequently diluted to 1× in the assay buffer. Kds were calculated with a standard dose-response curve using the Hill equation. Curves were fitted using a non-linear least square fit with the Levenberg–Marquardt algorithm. Next, we investigated the selectivity profile of GSK’074 against a panel of 468 kinases, including 403 non-mutant kinases using the KINOMEscan™ profiling service. […] KIT, MEK5, CSF1R, or EPHB6 had no established roles in cell death and their expression levels in SMCs, with the exception of MEK5, were negligible (Supplementary Figure 3).  Fig. 6 Selectivity profile of GSK’074. Binding of GSK’074 (100 nM) against 468 human kinases (403 non-mutant kinases, 65 mutant kinases) was assessed by DiscoveRx KINOMEscan™. a Selectivity scores of GSK’074. Selectivity score was defined as the number of non-mutant kinases bound to GSK’074 <35% of control (S(35)), 10% of control (S(10)), or 1% of control (S(1)). b TREEspot map of kinases potentially targeted by GSK’074.

[6] = molecular target: KIT(L576P) (Homo sapiens, UniProt P10721, L576P); assay: biochemical; parameters: KINOMEscan competition binding assay (DiscoveRx), per cent of control at 100 nM; conditions: competition binding, per cent of DMSO control; read-out: Percent Control
Method: as §1

[7] = molecular target: T5, ABL1-nonphosphorylated (Homo sapiens, UniProt P00519); assay: biochemical; parameters: KINOMEscan competition binding assay (DiscoveRx), per cent of control at 100 nM; conditions: competition binding, per cent of DMSO control; read-out: Percent Control
T5 construct: nonphosphorylated
Method: as §1

[8] = molecular target: T3, KIT; assay: biochemical; parameters: KINOMEscan competition binding assay (DiscoveRx), per cent of control at 100 nM; conditions: competition binding, per cent of DMSO control; read-out: Percent Control
Method: as §1

[9] = molecular target: MAP4K5 (Homo sapiens, UniProt Q9Y4K4); assay: biochemical; parameters: KINOMEscan competition binding assay (DiscoveRx), per cent of control at 100 nM; conditions: competition binding, per cent of DMSO control; read-out: Percent Control
Method: as §1

[10] = molecular target: RIPK2 (Homo sapiens, UniProt O43353); assay: biochemical; parameters: KINOMEscan competition binding assay (DiscoveRx), per cent of control at 100 nM; conditions: competition binding, per cent of DMSO control; read-out: Percent Control
Method: as §1

[11] = molecular target: FLT3 (Homo sapiens, UniProt P36888); assay: biochemical; parameters: KINOMEscan competition binding assay (DiscoveRx), per cent of control at 100 nM; conditions: competition binding, per cent of DMSO control; read-out: Percent Control
Method: as §1

[12] = molecular target: T6, MEK5 (Homo sapiens, UniProt Q13163); assay: biochemical; parameters: KINOMEscan competition binding assay (DiscoveRx), per cent of control at 100 nM; conditions: competition binding, per cent of DMSO control; read-out: Percent Control
T6 construct: gene MAP2K5
Method: as §1

[13] = molecular target: T7, ABL1(E255K)-phosphorylated (Homo sapiens, UniProt P00519, E255K); assay: biochemical; parameters: KINOMEscan competition binding assay (DiscoveRx), per cent of control at 100 nM; conditions: competition binding, per cent of DMSO control; read-out: Percent Control
T7 construct: phosphorylated
Method: as §1

[14] = molecular target: T8, ABL1(Q252H)-nonphosphorylated (Homo sapiens, UniProt P00519, Q252H); assay: biochemical; parameters: KINOMEscan competition binding assay (DiscoveRx), per cent of control at 100 nM; conditions: competition binding, per cent of DMSO control; read-out: Percent Control
T8 construct: nonphosphorylated
Method: as §1

[15] = molecular target: T9, RIP1 (Homo sapiens, UniProt Q13546); assay: biochemical; parameters: KINOMEscan competition binding assay (DiscoveRx), per cent of control at 100 nM; conditions: competition binding, per cent of DMSO control; read-out: Percent Control
T9 construct: gene RIPK1; kinase domain
Method: as §1

[16] = molecular target: T10, ABL1(T315I)-phosphorylated (Homo sapiens, UniProt P00519, T315I); assay: biochemical; parameters: KINOMEscan competition binding assay (DiscoveRx), per cent of control at 100 nM; conditions: competition binding, per cent of DMSO control; read-out: Percent Control
T10 construct: phosphorylated
Method: as §1

[17] = molecular target: T11, HPK1 (Homo sapiens, UniProt Q92918); assay: biochemical; parameters: KINOMEscan competition binding assay (DiscoveRx), per cent of control at 100 nM; conditions: competition binding, per cent of DMSO control; read-out: Percent Control
T11 construct: gene MAP4K1
Method: as §1

[18] = molecular target: KIT(V559D) (Homo sapiens, UniProt P10721, V559D); assay: biochemical; parameters: KINOMEscan competition binding assay (DiscoveRx), per cent of control at 100 nM; conditions: competition binding, per cent of DMSO control; read-out: Percent Control
Method: as §1

[19] = molecular target: PDGFRA (Homo sapiens, UniProt P16234); assay: biochemical; parameters: KINOMEscan competition binding assay (DiscoveRx), per cent of control at 100 nM; conditions: competition binding, per cent of DMSO control; read-out: Percent Control
Method: as §1

[20] = molecular target: T12, ABL1(H396P)-nonphosphorylated (Homo sapiens, UniProt P00519, H396P); assay: biochemical; parameters: KINOMEscan competition binding assay (DiscoveRx), per cent of control at 100 nM; conditions: competition binding, per cent of DMSO control; read-out: Percent Control
T12 construct: nonphosphorylated
Method: as §1

[21] = molecular target: AURKB (Homo sapiens, UniProt Q96GD4); assay: biochemical; parameters: KINOMEscan competition binding assay (DiscoveRx), per cent of control at 100 nM; conditions: competition binding, per cent of DMSO control; read-out: Percent Control
Method: as §1

[22] = molecular target: T13, ABL1(T315I)-nonphosphorylated (Homo sapiens, UniProt P00519, T315I); assay: biochemical; parameters: KINOMEscan competition binding assay (DiscoveRx), per cent of control at 100 nM; conditions: competition binding, per cent of DMSO control; read-out: Percent Control
T13 construct: nonphosphorylated
Method: as §1

[23] = molecular target: T14, MST1 (Homo sapiens, UniProt Q13043); assay: biochemical; parameters: KINOMEscan competition binding assay (DiscoveRx), per cent of control at 100 nM; conditions: competition binding, per cent of DMSO control; read-out: Percent Control
T14 construct: gene STK4
Method: as §1

[24] = molecular target: T2, EPHB6; assay: biochemical; parameters: KINOMEscan competition binding assay (DiscoveRx), per cent of control at 100 nM; conditions: competition binding, per cent of DMSO control; read-out: Percent Control
Method: as §1

[25] = molecular target: PRKD2 (Homo sapiens, UniProt Q9BZL6); assay: biochemical; parameters: KINOMEscan competition binding assay (DiscoveRx), per cent of control at 100 nM; conditions: competition binding, per cent of DMSO control; read-out: Percent Control
Method: as §1

[26] = molecular target: T15, ABL1-phosphorylated (Homo sapiens, UniProt P00519); assay: biochemical; parameters: KINOMEscan competition binding assay (DiscoveRx), per cent of control at 100 nM; conditions: competition binding, per cent of DMSO control; read-out: Percent Control
T15 construct: phosphorylated
Method: as §1

[27] = molecular target: PDGFRB (Homo sapiens, UniProt P09619); assay: biochemical; parameters: KINOMEscan competition binding assay (DiscoveRx), per cent of control at 100 nM; conditions: competition binding, per cent of DMSO control; read-out: Percent Control
Method: as §1

[28] = molecular target: FLT3(K663Q) (Homo sapiens, UniProt P36888, K663Q); assay: biochemical; parameters: KINOMEscan competition binding assay (DiscoveRx), per cent of control at 100 nM; conditions: competition binding, per cent of DMSO control; read-out: Percent Control
Method: as §1

[29] = molecular target: T4, CSF1R; assay: biochemical; parameters: KINOMEscan competition binding assay (DiscoveRx), per cent of control at 100 nM; conditions: competition binding, per cent of DMSO control; read-out: Percent Control
Method: as §1

[30] = molecular target: T16, LOK (Homo sapiens, UniProt O94804); assay: biochemical; parameters: KINOMEscan competition binding assay (DiscoveRx), per cent of control at 100 nM; conditions: competition binding, per cent of DMSO control; read-out: Percent Control
T16 construct: gene STK10
Method: as §1

[31] = molecular target: T9, RIP1; assay: KINOMEscan competition binding Kd; also ADP-Glo kinase inhibition
[32] = molecular target: T6, MEK5; assay: KINOMEscan competition binding, single concentration […]; conditions: read-out: % of control at 100 nM

T9 sequence (Q13546 1-294 limits assumed): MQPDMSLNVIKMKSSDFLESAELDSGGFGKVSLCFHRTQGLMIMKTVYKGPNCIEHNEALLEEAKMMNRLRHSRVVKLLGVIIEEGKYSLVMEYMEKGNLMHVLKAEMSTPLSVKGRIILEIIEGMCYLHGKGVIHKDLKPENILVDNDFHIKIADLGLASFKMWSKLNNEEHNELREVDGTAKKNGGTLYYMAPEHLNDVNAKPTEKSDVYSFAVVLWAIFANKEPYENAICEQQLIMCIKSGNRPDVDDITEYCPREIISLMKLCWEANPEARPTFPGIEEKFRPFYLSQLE
T4 sequence (P07333 20-972): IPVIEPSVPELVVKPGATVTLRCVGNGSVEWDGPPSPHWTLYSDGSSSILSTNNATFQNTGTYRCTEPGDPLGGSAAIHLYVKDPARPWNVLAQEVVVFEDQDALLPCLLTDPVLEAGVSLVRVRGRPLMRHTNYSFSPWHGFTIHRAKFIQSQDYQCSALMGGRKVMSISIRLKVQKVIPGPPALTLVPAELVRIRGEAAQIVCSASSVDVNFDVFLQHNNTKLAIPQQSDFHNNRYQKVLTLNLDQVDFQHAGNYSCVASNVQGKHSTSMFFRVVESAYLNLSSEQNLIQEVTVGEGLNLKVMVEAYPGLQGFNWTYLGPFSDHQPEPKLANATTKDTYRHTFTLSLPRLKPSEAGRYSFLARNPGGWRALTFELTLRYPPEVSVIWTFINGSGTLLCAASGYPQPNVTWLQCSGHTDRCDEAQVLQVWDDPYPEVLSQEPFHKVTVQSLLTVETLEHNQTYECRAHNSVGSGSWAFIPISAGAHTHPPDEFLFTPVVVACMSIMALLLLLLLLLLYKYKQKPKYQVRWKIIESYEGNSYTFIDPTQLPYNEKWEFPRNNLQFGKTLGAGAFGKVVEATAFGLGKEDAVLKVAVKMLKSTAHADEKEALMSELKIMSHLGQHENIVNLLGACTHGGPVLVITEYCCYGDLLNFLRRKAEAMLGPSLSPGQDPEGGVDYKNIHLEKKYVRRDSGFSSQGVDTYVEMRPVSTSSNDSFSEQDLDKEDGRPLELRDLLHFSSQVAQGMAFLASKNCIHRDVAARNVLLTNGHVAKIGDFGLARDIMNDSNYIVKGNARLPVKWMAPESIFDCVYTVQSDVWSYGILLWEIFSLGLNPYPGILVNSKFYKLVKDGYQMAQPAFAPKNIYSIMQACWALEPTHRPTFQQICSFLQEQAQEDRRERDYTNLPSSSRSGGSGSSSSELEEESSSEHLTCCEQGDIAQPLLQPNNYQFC
T6 sequence (Q13163 whole entry): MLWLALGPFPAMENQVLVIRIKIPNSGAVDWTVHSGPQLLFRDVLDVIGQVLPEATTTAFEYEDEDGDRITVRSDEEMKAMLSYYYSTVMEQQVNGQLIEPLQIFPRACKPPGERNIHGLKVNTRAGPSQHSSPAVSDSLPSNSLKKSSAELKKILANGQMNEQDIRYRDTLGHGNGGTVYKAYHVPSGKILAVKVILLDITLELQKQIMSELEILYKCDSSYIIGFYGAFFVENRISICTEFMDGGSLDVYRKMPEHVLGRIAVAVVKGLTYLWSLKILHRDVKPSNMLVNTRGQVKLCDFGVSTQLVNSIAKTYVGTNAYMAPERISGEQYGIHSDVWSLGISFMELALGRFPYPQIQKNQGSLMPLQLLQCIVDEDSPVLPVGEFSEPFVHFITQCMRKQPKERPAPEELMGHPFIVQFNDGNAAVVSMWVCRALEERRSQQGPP
T3 sequence (P10721 26-976): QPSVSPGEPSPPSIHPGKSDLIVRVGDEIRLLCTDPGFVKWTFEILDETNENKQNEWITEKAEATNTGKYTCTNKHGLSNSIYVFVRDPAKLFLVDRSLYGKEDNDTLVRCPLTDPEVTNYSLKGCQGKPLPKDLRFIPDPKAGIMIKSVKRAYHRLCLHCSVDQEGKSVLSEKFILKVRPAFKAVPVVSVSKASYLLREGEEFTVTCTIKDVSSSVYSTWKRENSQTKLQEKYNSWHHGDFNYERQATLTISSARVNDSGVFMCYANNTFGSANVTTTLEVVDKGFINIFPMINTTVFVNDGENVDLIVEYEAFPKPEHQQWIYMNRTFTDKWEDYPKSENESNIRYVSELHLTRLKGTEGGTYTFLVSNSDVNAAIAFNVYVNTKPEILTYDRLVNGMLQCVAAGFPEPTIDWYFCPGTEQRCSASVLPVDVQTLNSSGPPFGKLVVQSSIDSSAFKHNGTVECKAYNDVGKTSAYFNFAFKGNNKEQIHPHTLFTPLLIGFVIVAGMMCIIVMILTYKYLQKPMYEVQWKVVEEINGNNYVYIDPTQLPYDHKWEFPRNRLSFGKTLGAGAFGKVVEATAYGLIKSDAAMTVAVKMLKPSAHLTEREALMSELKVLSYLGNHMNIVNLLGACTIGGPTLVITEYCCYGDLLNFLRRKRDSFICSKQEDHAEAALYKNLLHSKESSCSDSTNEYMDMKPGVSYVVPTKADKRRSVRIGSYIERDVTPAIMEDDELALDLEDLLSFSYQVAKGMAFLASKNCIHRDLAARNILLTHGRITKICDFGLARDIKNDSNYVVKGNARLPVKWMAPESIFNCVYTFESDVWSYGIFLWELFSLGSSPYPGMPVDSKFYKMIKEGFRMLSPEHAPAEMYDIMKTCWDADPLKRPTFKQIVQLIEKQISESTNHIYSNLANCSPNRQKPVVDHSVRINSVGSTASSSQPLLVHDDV
T2 sequence (O15197 32-1021): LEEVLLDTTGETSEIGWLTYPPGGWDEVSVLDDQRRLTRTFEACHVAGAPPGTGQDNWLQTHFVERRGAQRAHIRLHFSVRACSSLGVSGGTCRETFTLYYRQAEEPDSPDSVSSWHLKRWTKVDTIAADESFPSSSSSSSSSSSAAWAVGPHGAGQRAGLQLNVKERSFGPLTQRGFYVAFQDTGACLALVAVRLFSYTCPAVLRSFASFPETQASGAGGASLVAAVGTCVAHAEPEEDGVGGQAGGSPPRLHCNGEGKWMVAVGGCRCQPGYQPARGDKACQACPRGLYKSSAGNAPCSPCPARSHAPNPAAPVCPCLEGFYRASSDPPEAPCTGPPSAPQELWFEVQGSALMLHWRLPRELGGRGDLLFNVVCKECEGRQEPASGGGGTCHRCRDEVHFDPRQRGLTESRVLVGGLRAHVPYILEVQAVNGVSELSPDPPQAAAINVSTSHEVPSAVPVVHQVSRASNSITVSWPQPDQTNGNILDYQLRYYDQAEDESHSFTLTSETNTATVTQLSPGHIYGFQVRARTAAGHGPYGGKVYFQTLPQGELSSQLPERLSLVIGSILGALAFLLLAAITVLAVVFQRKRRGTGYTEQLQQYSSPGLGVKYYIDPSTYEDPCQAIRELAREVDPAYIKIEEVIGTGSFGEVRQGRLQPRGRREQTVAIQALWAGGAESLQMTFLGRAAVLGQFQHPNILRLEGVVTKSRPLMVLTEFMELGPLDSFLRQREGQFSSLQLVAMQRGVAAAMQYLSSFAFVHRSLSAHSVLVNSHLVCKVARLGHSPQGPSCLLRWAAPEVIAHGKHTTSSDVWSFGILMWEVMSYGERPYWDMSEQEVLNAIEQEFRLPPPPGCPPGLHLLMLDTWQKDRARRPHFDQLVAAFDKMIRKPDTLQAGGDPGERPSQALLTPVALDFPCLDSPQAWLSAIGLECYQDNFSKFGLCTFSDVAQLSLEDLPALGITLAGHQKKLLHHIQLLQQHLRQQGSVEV
Chain of PDGFRB (P09619 whole entry): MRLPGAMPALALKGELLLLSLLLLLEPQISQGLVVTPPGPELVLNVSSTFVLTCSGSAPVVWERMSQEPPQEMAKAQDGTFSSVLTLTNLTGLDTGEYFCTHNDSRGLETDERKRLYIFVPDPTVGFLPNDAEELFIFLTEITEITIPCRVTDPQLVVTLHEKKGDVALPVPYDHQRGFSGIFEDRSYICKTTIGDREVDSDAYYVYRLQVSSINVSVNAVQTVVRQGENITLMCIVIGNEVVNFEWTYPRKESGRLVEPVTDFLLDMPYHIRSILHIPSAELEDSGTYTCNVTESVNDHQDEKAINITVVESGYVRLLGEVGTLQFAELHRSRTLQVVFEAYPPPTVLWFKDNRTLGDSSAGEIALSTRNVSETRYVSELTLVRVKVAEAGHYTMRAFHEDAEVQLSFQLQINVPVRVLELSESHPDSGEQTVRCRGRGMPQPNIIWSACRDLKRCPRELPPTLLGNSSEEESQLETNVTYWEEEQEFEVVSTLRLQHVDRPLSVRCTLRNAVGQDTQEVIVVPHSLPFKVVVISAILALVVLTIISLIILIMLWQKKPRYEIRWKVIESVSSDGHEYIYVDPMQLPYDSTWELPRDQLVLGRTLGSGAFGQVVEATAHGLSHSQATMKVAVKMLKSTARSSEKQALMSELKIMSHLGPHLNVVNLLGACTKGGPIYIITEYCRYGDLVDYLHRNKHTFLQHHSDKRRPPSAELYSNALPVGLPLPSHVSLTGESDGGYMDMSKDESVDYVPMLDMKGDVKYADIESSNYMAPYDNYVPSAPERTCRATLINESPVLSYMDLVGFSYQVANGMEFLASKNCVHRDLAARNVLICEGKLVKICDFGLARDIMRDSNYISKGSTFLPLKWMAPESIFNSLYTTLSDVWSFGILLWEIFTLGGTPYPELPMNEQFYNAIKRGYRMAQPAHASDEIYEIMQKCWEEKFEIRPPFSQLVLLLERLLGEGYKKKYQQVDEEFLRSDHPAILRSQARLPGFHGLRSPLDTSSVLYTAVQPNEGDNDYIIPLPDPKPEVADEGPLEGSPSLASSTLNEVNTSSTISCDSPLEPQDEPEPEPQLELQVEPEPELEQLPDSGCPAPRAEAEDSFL
Chain of AURKC (Q9UQB9 whole entry): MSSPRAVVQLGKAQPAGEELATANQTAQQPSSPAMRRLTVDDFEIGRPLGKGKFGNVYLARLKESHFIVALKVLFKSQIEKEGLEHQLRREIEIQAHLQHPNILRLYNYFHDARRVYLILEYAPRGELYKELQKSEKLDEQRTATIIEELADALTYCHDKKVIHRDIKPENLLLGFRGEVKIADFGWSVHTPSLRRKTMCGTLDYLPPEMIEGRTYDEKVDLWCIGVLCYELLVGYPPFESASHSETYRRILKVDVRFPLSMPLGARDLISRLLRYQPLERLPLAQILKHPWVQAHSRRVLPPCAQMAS

Which results are given for `Cn1cc(-c2cnc(N)c3c(-c4ccc5c(c4)CCN5C(=O)Cc4ccccc4)csc23)cn1` [GSK'074, GSK2593074A]?
Kd [1]: 130 nM; remaining binding at 0.1 µM [2]: < 1%; remaining binding at 0.1 µM [3]: < 1%; remaining binding at 0.1 µM [4]: < 1%; remaining binding at 0.1 µM [5]: 19%; remaining binding at 0.1 µM [6]: 0%; remaining binding at 0.1 µM [7]: 3.3%; remaining binding at 0.1 µM [8]: 0.35%; remaining binding at 0.1 µM [9]: 5.5%; remaining binding at 0.1 µM [10]: 12%; remaining binding at 0.1 µM [11]: 19%; remaining binding at 0.1 µM [12]: 0.1%; remaining binding at 0.1 µM [13]: 24%; remaining binding at 0.1 µM [14]: 6.1%; remaining binding at 0.1 µM [15]: 0%; remaining binding at 0.1 µM [16]: 19%; remaining binding at 0.1 µM [17]: 30%; remaining binding at 0.1 µM [18]: 0.05%; remaining binding at 0.1 µM [19]: 13%; remaining binding at 0.1 µM [20]: 2.2%; remaining binding at 0.1 µM [21]: 9.3%; remaining binding at 0.1 µM [22]: 0.3%; remaining binding at 0.1 µM [23]: 13%; remaining binding at 0.1 µM [24]: 0.5%; remaining binding at 0.1 µM [25]: 32%; remaining binding at 0.1 µM [26]: 25%; remaining binding at 0.1 µM [27]: 1.3%; remaining binding at 0.1 µM [28]: 30%; remaining binding at 0.1 µM [29]: 0.5%; remaining binding at 0.1 µM [30]: 30%; Kd [31]: 12 nM; remaining binding at 0.1 µM [32]: < 1%
